According to patent US20100151050A1, “Method for evaluation of compound using RSK1” (priority 2005, published 2010):

Test system: p53-negative cells (TOV21G-shp53, A549-shp53, MCF7-shp53, U2OS-shp53, dominant negative U2OS-mtp53)
Experiment: Cell viability by MTT assay after RSK1 siRNA lipofection, p53-negative cells
Assay type: cell-based
Conditions: p53-negative cells with siRNA of RSK1, 96 hours
Experimental: First, as p53-positive cells, prepared were TOV21G, A549, MCF7 and U2OS cells. As p53-negative cells, prepared were TOV21G-shp53, A549-shp53, MCF7-shp53 and U2OS-shp53 by introducing shRNA of p53 into the above-mentioned four types of cells. Further, dominant negative U2OS-mtp53 cells were also prepared by introducing V157Fp53 into U2OS cells.
Next, siRNA of RSK1 was introduced into the above cells according to a lipofection method, and the cells were incubated in a 10% FCS-containing D-MEM medium (10% FCS-containing MacCoy's 5A medium for U2OS cells) in the presence or absence of cisplatin (CDDP) for 96 hours, and then their viability was measured through MTT assay. As the siRNA of RSK1, used was a mixture of the following three sequences.

N.N.[Cl][Pt][Cl] [cisplatin]
effect of cisplatin under RSK1 expression inhibition: enhanced
